We go through seven molecules from patent US20140057877A1, “Therapeutic polyamine compositions and their synthesis” (priority 2002, published 2014).

Where two headings read alike, the source gives them in different places.

Data set [1] in a line: Oil water partition coefficients (octanol/water, HPLC). The format is physicochemical. The conditions noted are these: for lipid water partitioning, in words: passage through gastrointestinal barrier and blood brain barrier. On the procedure: Partition coefficients were determined by dissolving the compound in a 1:1 mixture of octanol/water and shaking the solution for 12 hours. HPLC was used to determine the partition coefficient. The reported values are the log of the octanol/water partition

The test system of data set [2] is E. coli (GM 7359) alkA tag E. coli mutant. The conditions noted are these: 60 minutes.
Method: (§2) Bacteria were inoculated and cultured in nutrient agar for eighteen hours, using a shaking incubator at 140 r.p.m and 35° C. Medium contained 10 mM HEPES buffer at pH 7. Cells were centrifuged twice in Sorval RC-5 centrifuge 12,000 r.pm.×15 minutes at 4° C. and washed twice in 10 uM HEPES buffer. The resuspended cells were counted using a Hemocrit and diluted to a level of 5×10^1 cells per ml in 10 μM HEPES. The cells, the following toxins; methyl viologen (paraquat), methyl viologen (MPP^+), rotenone, daizoxide, streptozotocin and alloxan, and antidotes were added, reaching final volumes of 1 ml in Eppendorf tubes and placed on a rotator at room temperature. 10 μM diethylenetriaminepentaacetic acid was added to the samples to terminate the reactions at the specified times of either twenty or sixty minutes. 300 μL of cells were plated on Petri plates containing nutrient agar and incubated at 35° C. overnight. Colonies were counted after 20 hours. Percentage survival as compared with culture controls is calculated from the means of triplicates in each experimental group.
The test system is the same in data set [3]. Conditions: 60 minutes. This is another data set of the same source.
Method: as §2
The test system of data set [4] is S. aureus (ATCC 29213). Kind of data set: Bacterial survival, toxin MPP^+ and antidotes. Conditions: 60 minutes.
Method: as §2
The next data set relates to M. Luteus (ATCC 499732). Kind of data set: Bacterial survival, toxin diazoxide and antidotes.
In data set [5] the test system is E. coli (GM 7359) alkA tag E. coli mutant. Description: Bacterial survival, toxin streptozotocin and antidotes. The conditions noted are these: 60 minutes.
Method: as §2
The nature of data set [6]: pKa by potentiometric titration. Type of data set: physicochemical. The conditions noted are these: aqueous solution, ionic strength 0.10, 25° C. On the procedure:
PKa's were determined by standard potentiometric titration methods in aqueous solution with an ionic strength of 0.10 at 25° C. Values are reported as log K values of the equilibrium constant.

For data set [7] the following is noted: cited from earlier work.
The test system of data set [8] is S. aureus (ATCC 29213). Kind of data set: Bacterial survival, toxin diazoxide and antidotes. The format is cell-based. Conditions: 60 minutes. On the procedure: (§1) Medium contained 10 mM HEPES buffer at pH 7. […] Colonies were counted after 20 hours.
Another data set deals with E. coli (ATCC 35150). Type of data set: cell-based. Conditions: 60 minutes. How it is done: as §1
The subject of data set [9] is S. aureus (ATCC 29213). The format is cell-based. How it is done:
as §1

Data set [10] deals with MPTP induced dopamine loss. The conditions noted are these: previously reported; cited from earlier work.
Setting [11] is: 1:1 octanol/water, shaken 12 hours, HPLC.
Setting [12] is: 100 uM Rotenone + 2.5 uM antidote.
Where [13] appears, read: 100 uM Rotenone + 5 uM antidote.
The mark [14] stands for this setting: 100 uM Streptozotocin + 5 uM antidote.
Setting [15] is: 0.15 mM Diazoxide + 2.5 uM antidote.
Where [16] appears, read: 0.15 mM Diazoxide + 5 uM antidote.

Method for M. Luteus (ATCC 499732): as §2

On to “1,4,8,11-tetraaza-1,4,8,11-tetra(2-piperidylethyl)cyclotetradecane [cyclam-piperidine]”, for which the “Log Partition Coefficient Octanol:Water” value in [1] (setting [11]) is reported as 0.7.

As to “1,4,8,11-tetraaza-1,4,8,11-tetrabicyclo[3.3.1]non-3-ylcyclotetradecane [Cyclam Adamantane]”, the “Mean % Survival” value in [2] (setting [12]) was determined as 97%; in data set [2] (setting [13]), 89%; in data set [2] (100 uM Rotenone + 12.5 uM antidote), 100%; in data set [2] (substance alone 25 uM), 100%; in data set [3] (2 mM Alloxan + 2.5 uM antidote), 100%; in [3] (2 mM Alloxan + 10 uM antidote), 100%. Moreover, the “Mean % Survival” value (in data set [3] (substance alone 10 uM); with S. aureus (ATCC 29213) [4] (0.2 mM MPP^+ + 1 uM antidote); in the data set with S. aureus (ATCC 29213) [4] (0.2 mM MPP^+ + 2.5 uM antidote); with S. aureus (ATCC 29213) [4] (0.2 mM MPP^+ + 5.0 uM antidote); in the data set on S. aureus (ATCC 29213) [4] (0.2 mM MPP^+ + 7.5 uM antidote); with S. aureus (ATCC 29213) [4] (substance alone 30 uM)) was 100% throughout. Further, the “Mean % Survival” value is listed as 100% with M. Luteus (ATCC 499732) (0.2 mM Diazoxide + 12.5 uM antidote, T20); 100% in the data set with M. Luteus (ATCC 499732) (0.2 mM Diazoxide + 12.5 uM antidote, T60); 100% with M. Luteus (ATCC 499732) (0.2 mM Diazoxide + 50 uM antidote, T20); 100% with M. Luteus (ATCC 499732) (0.2 mM Diazoxide + 100 uM antidote, T20); 100% in the data set with M. Luteus (ATCC 499732) (0.2 mM Diazoxide + 100 uM antidote, T60); 100% in the data set on M. Luteus (ATCC 499732) (substance alone 100 uM, T20 (20 minutes)). The “Mean % Survival” value in the data set with M. Luteus (ATCC 499732) (substance alone 100 uM, T60 (60 minutes)) is given as 100%; in [5] (100 uM Streptozotocin + 1 uM antidote) it was 93%; in data set [5] (setting [14]), 100%; in data set [5] (100 uM Streptozotocin + 12.5 uM antidote), 100%; in data set [5] (substance alone 12.5 uM), 100%.

In the case of `NCCNCCNCCN` [2,2,2-tetramine, reference compound], in data set [1] (setting [11]), the “Log Partition Coefficient Octanol:Water” value was determined as 1.6. In addition, in data set [1], the “lipid water partitioning, in words” value is on record as “optimal lipid water partitioning”. Further, in [6], the “pKa(1)” value is given as 9.7, the “pKa(2)” value is 9.1, the “pKa(3)” value came to 6.6 and the “pKa(4)” value was 3.3. In addition, in data set [2] (100 mM Rotenone + 0.5 mM antidote), the “Mean % Survival” value is 67%. For the same molecule, in [2] (100 mM Rotenone + 2 mM antidote), the “Mean % Survival” value was 100%. For the same molecule, the “Mean % Survival” value in [2] (substance alone 2 mM) is given as 100%. For the same molecule, in data set [7], the “half life in vivo” value is “only a few hours”. The “metabolism and excretion, in words” value in [7] (in vivo) is “rapidly metabolized to acetyl 2,2,2-tetramine and rapidly excreted”.

On to `CNCCNCCCNCCNC` [2,3,2-methylated on N1/N4, N,N′″-dimethyl 2,3,2-tetramine], for which the “Log Partition Coefficient Octanol:Water” value in [1] (setting [11]) turned out to be 0.4.

For `c1ccc(CNCCCNCc2ccccn2)nc1` [2,3,2-pyridine, (2-pyridylmethyl){3-[(2-pyridylmethyl)amino]propyl}amine], the logP at 12 h in data set [1] (octanol/water (1:1), 1:1 octanol/water, shaken 12 hours, HPLC, read-out: Log Partition Coefficient Octanol:Water) stood at 2.7. The “lipid water partitioning, in words” value in data set [1] was “optimal lipid water partitioning”. Besides, the values for the pKa in data set [6] (read-out: pKa(1)) and in [6] (read-out: pKa(2)) were 8.3 and 7.4, respectively. Besides, the “Mean % Survival” value with S. aureus (ATCC 29213) [8] (setting [15]) came to 61%; in the data set on S. aureus (ATCC 29213) [8] (setting [16]), 84%; with S. aureus (ATCC 29213) [8] (substance alone 5 uM) it was 99%; in data set [2] (setting [12]), 100%; in data set [2] (setting [13]), 100%; in data set [2] (100 uM Rotenone + 20 uM antidote), 100%. Besides, the “Mean % Survival” value is 100% in data set [2] (100 uM Rotenone + 50 uM antidote); 100% in data set [2] (substance alone 50 uM); 100% in data set [3] (2 mM Alloxan + 10 uM antidote); 100% in data set [3] (substance alone 10 uM); 96% with M. Luteus (ATCC 499732) (0.2 mM Diazoxide + 2.5 uM antidote, T20); 99% in the data set on M. Luteus (ATCC 499732) (0.2 mM Diazoxide + 2.5 uM antidote, T60). Further, the “Mean % Survival” value in the data set on M. Luteus (ATCC 499732) (0.2 mM Diazoxide + 5 uM antidote, T20) is reported as 93%; with M. Luteus (ATCC 499732) (0.2 mM Diazoxide + 5 uM antidote, T60), 100%; in the data set on M. Luteus (ATCC 499732) (0.2 mM Diazoxide + 10 uM antidote, T20) it was 100%; in the data set on M. Luteus (ATCC 499732) (0.2 mM Diazoxide + 10 uM antidote, T60), 100%; with M. Luteus (ATCC 499732) (0.2 mM Diazoxide + 20 uM antidote, T20), 100%; in the data set with M. Luteus (ATCC 499732) (0.2 mM Diazoxide + 20 uM antidote, T60) it was 100%. The “Mean % Survival” value with M. Luteus (ATCC 499732) (0.2 mM Diazoxide + 40 uM antidote, T20) was 100%; in the data set on M. Luteus (ATCC 499732) (0.2 mM Diazoxide + 40 uM antidote, T60) it was 70%; in the data set on M. Luteus (ATCC 499732) (substance alone 40 uM, T20 (20 minutes)) it was 100%; in the data set with M. Luteus (ATCC 499732) (substance alone 40 uM, T60 (60 minutes)) it was 100%; in data set [5] (100 uM Streptozotocin + 2.5 uM antidote) it was 100%; in data set [5] (setting [14]), 100%. For the same molecule, the “Mean % Survival” value in [5] (100 uM Streptozotocin + 20 uM antidote) and in data set [5] (substance alone 20 uM) was 100% throughout.

`NCCNCCCNCCN` [2,3,2-tetramine, 1,3-bis-[(2′-aminoethyl)-amino]propane]: the “Log Partition Coefficient Octanol:Water” value in data set [1] (setting [11]) was 2.1. In [1], the “lipid water partitioning, in words” value was “optimal lipid water partitioning”. In addition, the “pKa(1)” value in data set [6] is reported as 10.3. In addition, the “pKa(2)” value in [6] is reported as 9.5. Further, in [6], the “pKa(3)” value is on record as 7.3. In addition, the “pKa(4)” value in data set [6] is recorded as 6.0. Moreover, the “Mean % Survival” value in the data set on E. coli (ATCC 35150) (1.0 mM Paraquat + 1.0 mM antidote) was determined as 100%; in the data set with E. coli (ATCC 35150) (substance alone 1 mM), 100%; in the data set with S. aureus (ATCC 29213) [9], 78%; with S. aureus (ATCC 29213) [9] (0.5 mM Paraquat + 1 mM antidote, 60 minutes) it was 80%; with S. aureus (ATCC 29213) [9] (substance alone 1 mM, 60 minutes), 100%; in the data set with S. aureus (ATCC 29213) [8] (setting [15]), 65%. Besides, the “Mean % Survival” value was found to be 78% in the data set on S. aureus (ATCC 29213) [8] (setting [16]), 78% in the data set with S. aureus (ATCC 29213) [8] (0.15 mM Diazoxide + 10 uM antidote), 75% with S. aureus (ATCC 29213) [8] (0.15 mM Diazoxide + 20 uM antidote) and 99% in the data set on S. aureus (ATCC 29213) [8] (substance alone 20 uM). In addition, in [10], the “prevention of MPTP induced dopamine loss, in words” value was “prevent MPTP induced dopamine loss”.

Regarding `C[n+]1ccc(-c2cc[n+](C)cc2)cc1` [Paraquat], the “Mean % Survival” value with E. coli (ATCC 35150) (substance alone 0.5 mM) is listed as 16%; in the data set on E. coli (ATCC 35150) (substance alone 1 mM) it was 10%; in the data set with S. aureus (ATCC 29213) [9] (substance alone 0.5 mM, 60 minutes), 39%.

The pKa is the pH at which an ionisable group is half protonated.
